Test results reported in patent US12296027B2, “Molecular renal probes for detecting acute kidney injury” (Nanyang Technological University, priority 2019, dated 2025).
Several values for one entry are separate records, joined by “and”; a condition that tells them apart may be missing. Identical values can stand only once.

Key:
[1] = Photophysical properties (absorption, fluorescence, quantum yield); format: physicochemical
Protocol: Optical measurement. […] The ADR solution (30 μM) was incubated with KO2 (60 μM) and NAG (40 mU), respectively, in PBS (10 mM, pH 7.4) at 37° C. […] Fluorescence images were acquired using the IVIS spectrum imaging system with excitation at 675±10 nm (640±10 nm for MRPD) and emission at 720±10 nm (760±10 nm for MRPD) and the acquisition time of 0.1 s. Chemiluminescence images were acquired under bioluminescence mode with open filter and the acquisition time of 1 s. The sensing capability of MRPs was analysed through HPLC. UV-Vis and fluorescence spectra of the uncaged fluorophores solution (30 μM) in PBS (10 mM, pH 7.4) were recorded on UV-Vis and fluorescence spectrophotometers.
Measurement of fluorescence quantum yields. ICG was used as a standard with a known fluorescence quantum yield (ϕ) value of 13% in DMSO (R. C. Benson, H. A. Kues, J. Chem. Eng. Data 1977, 22, 379-383). Fluorescence quantum yields were calculated using the following equation: ϕs/ϕf=(As/Af)×(Abss/Absf)×(ηs^2/ηf^2), Where ϕs and ϕf are the fluorescence quantum yields of the standard and the samples, respectively; As and Af are the emission areas of the standard and the samples, respectively; Abss and Absf are the absorbance of the standard and the samples at the wavelength of excitation; ηs and ηf are the refractive indices of the standard and the samples, respectively.

[2] = In vivo biodistribution by NIRF imaging; design: species or system mice; settings: i.v., 8 μmol kg^−1 (MRPD 32 μmol kg^−1)
Protocol: All animal studies were performed in compliance with the guidelines set by the Institutional Animal Care and Use Committee (IACUC), Sing Health. Female nude mice (Tac:Cr:(NCr)-Fox1nu, 8 weeks old) were obtained from InVivos Pte Ltd (Singapore). Aged female nude mice (25 weeks old) were obtained by feeding after receive at 8 weeks old. Female Balb/c mice (10 weeks old), male type 2 diabetic BKS-db mice (BKS-Lepr^em2Cd479 with a C57BLKS/J background, 12 weeks old) and male nondiabetic C57BLKS/J wild-type mice (12 weeks) were obtained from Nanjing Biomedical Research Institute of Nanjing University (Nanjing, China). NCr nude mice were i.v. injected with 0.2 ml saline (control), the uncaged fluorophores (CMe, CP2, CP5 and CCD, 8 μmol kg^−1 body weight) or MRPD (32 μmol kg^−1 body weight), and imaged using the IVIS spectrum imaging system at 30 and 60 min post-injection. The abdominal cavity and resected organs from mice were imaged after sacrifice at t=60 min post-injection. Fluorescence images were acquired using the IVIS spectrum imaging system with excitation at 675±10 nm (640±10 nm for MRPD) and emission at 720±10 nm (760±10 nm for MRPD). Fluorescence intensities for each organ were analysed by the region of interest (ROI) analysis using the Living Image 4.3 Software (3 mice were analysed for each sample).

[3] = Renal clearance efficiency studies (urine HPLC); format: in vivo; settings: healthy mice, i.v.
Protocol: NCr nude mice were i.v. injected with the uncaged fluorophores (CMe, CP2, CP5 and CCD, 8 μmol kg^−1 body weight), MRPs1-3 (8 μmol kg^−1 body weight) or MRPD (32 μmol kg^−1 body weight) and placed in metabolic cages (3 mice were analysed for each sample). […] Urine was collected at 1, 3, 6, 9 and 24 h post-injection, centrifuged at 4500 r.p.m. for 8 min and filtered by 0.22 μm syringe filter. Excretion of the uncaged fluorophores and MRPs in the urine was quantified using HPLC. Mice were sacrificed to image resected organs after 24 h urine collection. Fluorescence intensities for resected organs were analysed by the ROI analysis using the Living Image 4.3 Software. Major organs were collected, homogenised in PBS buffer (10 mM, pH 7.4) and centrifuged at 4500 r.p.m for 15 min to remove insoluble components. Fluorescence intensities of the final supernatants were measured on fluorescence spectrophotometer.
Mice were i.v. injected with ADR (30 μmol kg^−1 body weight) and placed in metabolic cages. Urine was collected at 1, 3, 6, 9 and 24 h post-injection, diluted in PBS and centrifuged at 4500 r.p.m. for 10 min and filtered by 0.22 μm syringe filter. ADR in the urine was quantified using HPLC. The absorption and fluorescence spectra were measured for the urine samples. […]

[4] = in 3 h, Patients; cited from earlier work

| Stokes shift [1] [nm] | λab, wavelength of maximum absorbance ([1]; PBS pH 7.4) | λem, wavelength of maximum emission ([1]; PBS pH 7.4) | renal clearance efficiency at 24 h post-injection [3] | Renal clearance efficiency (%) ([3]; Table 5) | SMILES | biodistribution at 1 h post-injection (ex vivo NIRF) [2] | Renal clearance efficiency [4] [% ID in 3 h] |
| --- | --- | --- | --- | --- | --- | --- | --- |
| 25 | 690 nm and 697 nm | 720 nm and 722 nm | nearly undetectable in urine | <5 | C[N+]1=C(/C=C/C2=C3Oc4cc(O)ccc4C=C3CCC2)C(C)(C)c2ccccc21 [CMe] | mainly accumulated in the liver, gallbladder, and intestine |  |
|  |  |  |  |  | O=C([O-])CN=C([O-])CN=C([O-])CN=C([O-])C[S-].[O-2].[Tc+4] [^99mTc-MAG3] |  | 90 |
